Assay in all cases: modified broth dilution assay, 96-well plates (MIC)
Common to all, as to assay type: cell-based
For orientation: Broth dilution looks for growth in wells or tubes with falling amounts of substance.

One assay relates to Staphylococcus aureus. Conditions: overnight 37.0° C., absorbance 600 nm. The protocol: (§1) In order to determine the minimal inhibitory concentration (MIC) for the bioflavonoids (BC), allicin (AL) and ajoene (AJ) on selected Gram-positive bacteria, Gram-negative bacteria and yeast, a modified broth dilution assay using 96-well plates, according to Wiegand, Hilpert and Hancock (2008), was performed.
(§2) The microorganisms for the study were obtained from Cardiff University. The cultures used in the study were prepared by aseptic inoculation of microorganisms from pure plate cultures into 50 ml of sterile nutrient broth. The cultures were incubated overnight at 37.0° C. without agitation. Prior to use the cultures were washed by centrifugation in a desk top centrifuge at 3000 RPM for 15 minutes and the pellet resuspended in sterile saline (0.85% NaCl).
(§3) In order to determine the activity of the compounds both individually as well as in combination, a range of concentrations of each compound was used in a doubling dilution. The highest concentration used was dependent on the organism in question (whether Gram-positive bacteria, Gram-negative bacteria or yeast). From the highest concentration used in the test the samples were diluted five times in order to give six different concentrations per compound.
(§4) The allicin samples were aqueous solutions and were therefore diluted directly using H2O. However, the ajoene was in oil form and the bioflavonoids were in powder form, neither of which were water soluble. Before dilution the ajoene and bioflavonoids were solubilised by creation of a stock solution using 80% DMSO.
(§5) The wells on the 96-well plates were prepared in triplicate as follows: the AL, AJ and BC were pre-diluted in Eppendorf tubes at 10× the required final concentration. 20 μl of each dilution was added per well to give a 1:10 dilution in the final 200 μl per well. A matrix of concentrations of mixtures of allicin:bioflavonoid, ajoene:bioflavonoid and allicin:ajoene:bioflavonoid was used, with the dilution gradients of allicin and ajoene running inversely to bioflavonoids.
(§6) 130 μl of sterile nutrient broth (Nutrient Broth No. 3 (Sigma 70149)) was added to each well.
(§7) 50 μl of each microorganism suspended in saline was added to each well (except for the negative control). Each species of microorganism was added to two plates, the first for the individual (control) assays and the second for the matrix study. The plates were incubated at 37.0° C. overnight without agitation.
(§8) The plates were scanned individually using a Tecan plate reader at 600 nm and the absorbance recorded in a comma-delimited file for analysis.
(§9) The absorbance for each sample was compared to the growth (absorbance) of the control cultures (without treatment) in order to determine the MIC (all values blanked against negative control to negate absorbance of plate and broth). The mean and standard deviation of the triplicate experiments were determined and the means plotted on scatter diagrams for comparison.

The next assay concerns Candida tropicalis. Conditions: overnight 37.0° C., absorbance 600 nm. How it is done:
as §1, §2, §3, §4, §5, §6, §7, §8, §9

For the next assay, the system named is Pseudomonas aeruginosa. Conditions: overnight 37.0° C., absorbance 600 nm. How it is done:
as §1, §2, §3, §4, §5, §6, §7, §8, §9

The next assay relates to Klebsiella pneumonia. Conditions: Klebsiella pneumoniae, overnight 37.0° C., absorbance 600 nm. How it is done:
as §1, §2, §3, §4, §5, §6, §7, §8, §9

In a further assay the test system is Bacillus subtilis. Conditions: overnight 37.0° C., absorbance 600 nm. The protocol: as §1, §2, §3, §4, §5, §6, §7, §8, §9
A further assay deals with Escherichia coli. Conditions: overnight 37.0° C., absorbance 600 nm. The protocol: as §1, §2, §3, §4, §5, §6, §7, §8, §9

As a reminder, the MIC is the lowest concentration that inhibits growth of the organism. `C=CCSSC=CC[S+]([O-])CC=C` (mixture of isomers) [Ajoene, (E,Z)-4,5,9-trithiadodeca-1,6,11-triene 9-oxide]: the MIC in the assay with Staphylococcus aureus was found to be 48 µg/mL; in the assay with Candida tropicalis it was 24 µg/mL; in the assay on Pseudomonas aeruginosa, 12 µg/mL; with Klebsiella pneumonia it was 12 µg/mL; with Bacillus subtilis, 24 µg/mL; in the assay with Escherichia coli, 24 µg/mL.
`C=CCS[S+]([O-])CC=C` (stereo not drawn) [Allicin, 2-Propene-1-sulfinothioic acid S-2-propenyl]: the MIC in the assay with Staphylococcus aureus stood at 27.6 µg/mL; with Candida tropicalis, 9.2 µg/mL; with Pseudomonas aeruginosa it was 9.2 µg/mL; in the assay with Klebsiella pneumonia, 46 µg/mL; in the assay with Bacillus subtilis, 9.2 µg/mL; with Escherichia coli, 18.4 µg/mL.

Source of the values: patent publication US20230285493A1, “ANTIMICROBIAL COMPOSITION” (Mootral SA, priority 2014, published 2023).
